Laboratory results published in ChEMBL document CHEMBL3217463, “Design, synthesis and biological evaluation of -lactam hydroxamate based TACE inhibitors” (Medchemcomm, 2011).
One block for each molecule: values may come before it.

Experiments:
Blood = assay: Antiinflammatory activity in human whole blood assessed as inhibition of LPS-induced TNFalpha secretion by ELISA; type: functional, tissue-based
[1] = molecular target: T1, Disintegrin and metalloproteinase domain-containing protein 17 (Homo sapiens, UniProt P78536); assay: Inhibition of human catalytic domain of TACE assessed as inhibit the cleavage of the substrate by fluorescence-based FRET assay
T1 sequence (P78536 whole entry, the tested form may be a part): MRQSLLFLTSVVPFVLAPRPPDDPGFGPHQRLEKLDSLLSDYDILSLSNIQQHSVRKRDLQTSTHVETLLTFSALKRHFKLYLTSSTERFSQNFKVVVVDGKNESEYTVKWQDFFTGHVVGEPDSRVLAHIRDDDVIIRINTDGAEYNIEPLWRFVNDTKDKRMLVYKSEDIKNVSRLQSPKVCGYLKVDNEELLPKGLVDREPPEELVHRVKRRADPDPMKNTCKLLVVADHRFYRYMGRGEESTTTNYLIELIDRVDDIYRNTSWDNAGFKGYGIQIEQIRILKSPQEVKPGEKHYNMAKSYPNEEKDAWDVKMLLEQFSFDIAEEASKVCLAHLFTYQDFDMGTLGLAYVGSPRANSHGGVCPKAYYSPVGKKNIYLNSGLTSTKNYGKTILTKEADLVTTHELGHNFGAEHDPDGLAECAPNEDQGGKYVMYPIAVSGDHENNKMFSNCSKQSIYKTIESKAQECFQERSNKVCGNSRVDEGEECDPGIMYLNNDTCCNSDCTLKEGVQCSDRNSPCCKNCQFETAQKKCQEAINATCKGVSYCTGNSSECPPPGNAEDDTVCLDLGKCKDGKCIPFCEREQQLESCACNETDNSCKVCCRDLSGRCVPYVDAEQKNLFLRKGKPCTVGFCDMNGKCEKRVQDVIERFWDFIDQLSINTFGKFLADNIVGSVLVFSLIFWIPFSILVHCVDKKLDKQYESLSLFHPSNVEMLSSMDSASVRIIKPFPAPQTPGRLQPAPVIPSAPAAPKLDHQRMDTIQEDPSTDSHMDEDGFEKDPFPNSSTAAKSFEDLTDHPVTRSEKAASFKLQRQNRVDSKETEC

[2] = molecular target: T2, Disintegrin and metalloproteinase domain-containing protein 10 (Homo sapiens, UniProt O14672); assay: Inhibition of ADAM10 (unknown origin) using fluorescent substrate by fluorescence-based FRET assay
T2 sequence (O14672 whole entry): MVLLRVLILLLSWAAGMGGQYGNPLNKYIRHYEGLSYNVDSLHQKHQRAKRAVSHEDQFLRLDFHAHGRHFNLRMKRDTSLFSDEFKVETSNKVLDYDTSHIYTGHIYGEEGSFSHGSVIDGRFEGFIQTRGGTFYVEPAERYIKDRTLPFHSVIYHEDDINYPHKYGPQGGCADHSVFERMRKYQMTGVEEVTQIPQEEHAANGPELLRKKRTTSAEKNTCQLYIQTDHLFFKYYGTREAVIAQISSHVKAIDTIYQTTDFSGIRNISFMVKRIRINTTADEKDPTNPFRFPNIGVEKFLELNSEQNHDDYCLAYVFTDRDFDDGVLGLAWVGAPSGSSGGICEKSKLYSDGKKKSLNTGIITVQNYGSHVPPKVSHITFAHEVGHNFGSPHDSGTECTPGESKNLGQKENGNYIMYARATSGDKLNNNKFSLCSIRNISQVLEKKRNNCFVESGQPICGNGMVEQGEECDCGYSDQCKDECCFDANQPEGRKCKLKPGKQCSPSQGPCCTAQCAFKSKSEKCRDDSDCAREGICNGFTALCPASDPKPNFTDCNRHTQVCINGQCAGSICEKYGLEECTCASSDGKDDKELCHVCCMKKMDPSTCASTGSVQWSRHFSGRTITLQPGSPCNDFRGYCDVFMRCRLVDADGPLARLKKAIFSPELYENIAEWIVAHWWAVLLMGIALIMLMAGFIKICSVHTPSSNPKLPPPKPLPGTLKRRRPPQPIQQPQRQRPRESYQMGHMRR

Interstitial collagenase = molecular target: T3, Interstitial collagenase (Homo sapiens, UniProt P03956); assay: Inhibition of MMP1 (unknown origin) by fluorescence-based FRET assay
T3 sequence (P03956 whole entry): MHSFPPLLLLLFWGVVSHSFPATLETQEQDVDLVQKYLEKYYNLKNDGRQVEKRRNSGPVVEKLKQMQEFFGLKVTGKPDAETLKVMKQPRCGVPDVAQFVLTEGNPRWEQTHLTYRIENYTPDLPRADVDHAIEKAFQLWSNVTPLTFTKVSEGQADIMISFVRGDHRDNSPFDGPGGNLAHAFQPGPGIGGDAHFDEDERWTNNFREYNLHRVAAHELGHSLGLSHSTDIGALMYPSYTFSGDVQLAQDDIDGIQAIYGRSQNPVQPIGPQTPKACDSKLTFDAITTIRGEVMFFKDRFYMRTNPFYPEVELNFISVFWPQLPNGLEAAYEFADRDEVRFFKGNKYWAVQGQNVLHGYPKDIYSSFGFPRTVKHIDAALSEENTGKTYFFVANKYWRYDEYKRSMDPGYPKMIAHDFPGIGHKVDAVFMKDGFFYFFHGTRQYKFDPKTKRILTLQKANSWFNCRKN

[3] = molecular target: 72 kDa type IV collagenase (Homo sapiens, UniProt P08253); assay: Inhibition of MMP2 (unknown origin) by fluorescence-based FRET assay
Sequence of 72 kDa type IV collagenase (P08253 whole entry): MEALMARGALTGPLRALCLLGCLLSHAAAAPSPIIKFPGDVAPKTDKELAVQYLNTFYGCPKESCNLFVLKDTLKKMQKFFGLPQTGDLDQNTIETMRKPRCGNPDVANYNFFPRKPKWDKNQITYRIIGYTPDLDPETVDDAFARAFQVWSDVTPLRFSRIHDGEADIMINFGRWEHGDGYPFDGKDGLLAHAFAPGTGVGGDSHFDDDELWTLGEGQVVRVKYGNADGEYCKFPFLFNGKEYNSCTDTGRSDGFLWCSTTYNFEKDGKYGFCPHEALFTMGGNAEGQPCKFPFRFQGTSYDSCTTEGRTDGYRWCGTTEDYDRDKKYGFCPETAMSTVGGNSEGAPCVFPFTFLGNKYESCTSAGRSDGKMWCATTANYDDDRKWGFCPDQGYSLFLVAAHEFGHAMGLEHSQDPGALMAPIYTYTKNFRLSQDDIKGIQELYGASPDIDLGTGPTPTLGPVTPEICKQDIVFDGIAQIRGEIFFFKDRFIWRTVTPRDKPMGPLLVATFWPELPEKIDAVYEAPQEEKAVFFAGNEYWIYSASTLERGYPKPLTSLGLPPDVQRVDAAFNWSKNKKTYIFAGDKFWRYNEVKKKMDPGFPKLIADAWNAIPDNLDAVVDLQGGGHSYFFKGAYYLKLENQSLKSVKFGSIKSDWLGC

Stromelysin-1 = Stromelysin-1 (Homo sapiens, UniProt P08254); assay: Inhibition of MMP3 (unknown origin) by fluorescence-based FRET assay
Sequence of Stromelysin-1 (P08254 whole entry): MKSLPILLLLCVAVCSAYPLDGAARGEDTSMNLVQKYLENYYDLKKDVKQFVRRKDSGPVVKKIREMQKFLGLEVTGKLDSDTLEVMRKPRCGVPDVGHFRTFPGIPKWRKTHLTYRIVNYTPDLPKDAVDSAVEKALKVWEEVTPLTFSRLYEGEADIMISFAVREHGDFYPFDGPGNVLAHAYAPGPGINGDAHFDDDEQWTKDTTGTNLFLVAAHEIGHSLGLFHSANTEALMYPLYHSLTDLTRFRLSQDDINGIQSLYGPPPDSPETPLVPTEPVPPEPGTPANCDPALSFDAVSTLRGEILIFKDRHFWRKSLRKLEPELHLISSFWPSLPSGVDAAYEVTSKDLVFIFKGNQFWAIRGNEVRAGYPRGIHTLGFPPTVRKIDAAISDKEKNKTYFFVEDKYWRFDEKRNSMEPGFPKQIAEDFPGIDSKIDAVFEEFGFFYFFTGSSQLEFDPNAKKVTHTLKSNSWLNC

Matrilysin = molecular target: T4, Matrilysin (Homo sapiens, UniProt P09237); assay: Inhibition of MMP7 (unknown origin) by fluorescence-based FRET assay
T4 sequence (P09237 whole entry): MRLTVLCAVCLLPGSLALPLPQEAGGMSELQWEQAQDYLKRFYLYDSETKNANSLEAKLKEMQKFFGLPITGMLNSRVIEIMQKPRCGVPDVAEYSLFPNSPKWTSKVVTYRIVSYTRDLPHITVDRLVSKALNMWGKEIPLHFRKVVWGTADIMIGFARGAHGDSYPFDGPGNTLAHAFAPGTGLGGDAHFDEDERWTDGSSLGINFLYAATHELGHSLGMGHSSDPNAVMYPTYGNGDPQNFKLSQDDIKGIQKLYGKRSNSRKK

Neutrophil collagenase = Neutrophil collagenase (Homo sapiens, UniProt P22894); assay: Inhibition of MMP8 (unknown origin) by fluorescence-based FRET assay
Sequence of Neutrophil collagenase (P22894 whole entry): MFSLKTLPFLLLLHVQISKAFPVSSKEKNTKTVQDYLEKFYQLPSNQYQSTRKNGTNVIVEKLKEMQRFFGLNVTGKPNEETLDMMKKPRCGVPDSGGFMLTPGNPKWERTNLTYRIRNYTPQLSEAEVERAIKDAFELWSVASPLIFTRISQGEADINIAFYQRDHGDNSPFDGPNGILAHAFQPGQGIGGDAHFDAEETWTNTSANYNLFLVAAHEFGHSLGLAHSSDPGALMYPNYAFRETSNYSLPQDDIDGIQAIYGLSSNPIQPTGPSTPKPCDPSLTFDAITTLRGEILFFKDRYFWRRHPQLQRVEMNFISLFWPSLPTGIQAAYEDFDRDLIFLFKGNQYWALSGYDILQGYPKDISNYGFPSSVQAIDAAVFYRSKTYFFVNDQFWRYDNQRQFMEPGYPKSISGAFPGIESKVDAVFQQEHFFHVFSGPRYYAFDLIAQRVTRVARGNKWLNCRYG

[4] = molecular target: Matrix metalloproteinase-9 (Homo sapiens, UniProt P14780); assay: Inhibition of MMP9 (unknown origin) by fluorescence-based FRET assay
Sequence of Matrix metalloproteinase-9 (P14780 whole entry): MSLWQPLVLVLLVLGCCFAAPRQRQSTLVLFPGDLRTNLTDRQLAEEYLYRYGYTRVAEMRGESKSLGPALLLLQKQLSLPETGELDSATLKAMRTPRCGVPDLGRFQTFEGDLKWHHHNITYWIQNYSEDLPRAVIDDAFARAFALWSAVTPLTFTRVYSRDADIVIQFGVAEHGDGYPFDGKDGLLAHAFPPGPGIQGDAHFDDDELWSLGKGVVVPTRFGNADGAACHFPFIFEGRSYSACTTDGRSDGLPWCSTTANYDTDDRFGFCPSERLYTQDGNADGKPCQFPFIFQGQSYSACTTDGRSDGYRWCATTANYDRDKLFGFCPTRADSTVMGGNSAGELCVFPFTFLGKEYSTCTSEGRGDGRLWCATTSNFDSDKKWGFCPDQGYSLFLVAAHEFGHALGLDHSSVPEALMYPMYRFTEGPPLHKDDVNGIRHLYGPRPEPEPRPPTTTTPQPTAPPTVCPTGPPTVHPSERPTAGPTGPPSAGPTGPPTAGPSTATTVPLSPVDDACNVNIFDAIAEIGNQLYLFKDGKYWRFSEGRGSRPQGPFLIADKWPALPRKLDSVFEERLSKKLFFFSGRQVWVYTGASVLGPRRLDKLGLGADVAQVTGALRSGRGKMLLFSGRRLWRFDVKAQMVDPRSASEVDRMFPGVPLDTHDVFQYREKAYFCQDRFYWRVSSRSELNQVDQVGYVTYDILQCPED

Collagenase 3 = Collagenase 3 (Homo sapiens, UniProt P45452); assay: Inhibition of MMP13 (unknown origin) by fluorescence-based FRET assay
[5] = molecular target: Matrix metalloproteinase-14 (Homo sapiens, UniProt P50281); assay: Inhibition of MMP14 (unknown origin) by fluorescence-based FRET assay
[6] = molecular target: T1, Disintegrin and metalloproteinase domain-containing protein 17; assay: Ratio of IC50 for human catalytic domain of TACE to IC50 for ADAM10 (unknown origin)
[7] = molecular target: T1, Disintegrin and metalloproteinase domain-containing protein 17; assay: Ratio of IC50 for human catalytic domain of TACE to IC50 for MMP1 (unknown origin)
[8] = molecular target: T1, Disintegrin and metalloproteinase domain-containing protein 17; assay: Ratio of IC50 for human catalytic domain of TACE to IC50 for MMP2 (unknown origin)
[9] = molecular target: T1, Disintegrin and metalloproteinase domain-containing protein 17; assay: Ratio of IC50 for human catalytic domain of TACE to IC50 for MMP3 (unknown origin)
[10] = molecular target: T1, Disintegrin and metalloproteinase domain-containing protein 17; assay: Ratio of IC50 for human catalytic domain of TACE to IC50 for MMP7 (unknown origin)
[11] = molecular target: T1, Disintegrin and metalloproteinase domain-containing protein 17; assay: Ratio of IC50 for human catalytic domain of TACE to IC50 for MMP8 (unknown origin)
[12] = molecular target: T1, Disintegrin and metalloproteinase domain-containing protein 17; assay: Ratio of IC50 for human catalytic domain of TACE to IC50 for MMP9 (unknown origin)
[13] = molecular target: T1, Disintegrin and metalloproteinase domain-containing protein 17; assay: Ratio of IC50 for human catalytic domain of TACE to IC50 for MMP13 (unknown origin)
[14] = molecular target: T1, Disintegrin and metalloproteinase domain-containing protein 17; assay: Ratio of IC50 for human catalytic domain of TACE to IC50 for MMP14 (unknown origin)
Mus musculus = assay: Antiinflammatory activity in po dosed Swiss Albino mouse assessed as inhibition of LPS-induced TNFalpha secretion in blood treated 0.5 hrs before LPS and measured after 1 hr of LPS stimulus by ELISA; type: functional

SMILES: COCc1cc(COc2ccc([C@]3(NC(=O)OC(C)(C)C)CCN([C@H](CC(C)C)C(=O)NO)C3=O)cc2)c2ccccc2n1
IC50 (Blood): 3050 nM

SMILES: CC(C)C[C@H](C(=O)NO)N1CC[C@@](N)(c2ccc(OCc3cc(C4CC4)nc4ccccc34)cc2)C1=O
IC50 (Blood): 170 nM

SMILES: COCc1cc(COc2ccc([C@]3(N)CCN([C@H](CC(C)C)C(=O)OC)C3=O)cc2)c2ccccc2n1
IC50 (Blood): 3000 nM

SMILES: COCc1cc(COc2ccc([C@]3(N)CCN([C@H](CC(C)C)C(=O)O)C3=O)cc2)c2ccccc2n1
IC50 (Blood): 3230 nM

SMILES: Cc1ccc(-c2cc(COc3ccc([C@]4(N)CCN([C@H](CC(C)C)C(=O)NO)C4=O)cc3)c3ccccc3n2)cc1
IC50 (Blood): 2900 nM

SMILES: CC(C)C[C@H](C(=O)NO)N1CC[C@@](N)(c2ccc(OCc3cc(Cl)nc4ccccc34)cc2)C1=O
IC50 (Blood): 450 nM

SMILES: CC(C)C[C@H](C(=O)NO)N1CC[C@@](N)(c2ccc(OCc3cc(-c4ccc(F)cc4)nc4ccccc34)cc2)C1=O
IC50 (Blood): 290 nM

SMILES: Cc1cccc(-c2cc(COc3ccc([C@]4(N)CCN([C@H](CC(C)C)C(=O)NO)C4=O)cc3)c3ccccc3n2)c1
IC50 (Blood): 3880 nM

Molecules with a lower IC50 (Blood), results first:

IC50 (Blood): 130 nM
SMILES: CC(C)C[C@H](C(=O)NO)N1CC[C@@](N)(c2ccc(OCc3cc(CCOC(C)C)nc4ccccc34)cc2)C1=O

IC50 (Blood): 98 nM
SMILES: COCc1cc(COc2ccc([C@]3(N)CCN([C@H](C)C(=O)NO)C3=O)cc2)c2ccccc2n1

IC50 (Blood): 11 nM
IC50 [1]: 2.1 nM
IC50 [2]: 1210 nM
IC50 (Interstitial collagenase): 1130 nM
IC50 [3]: 1170 nM
IC50 (Stromelysin-1): 1080 nM
IC50 (Matrilysin): 1240 nM
IC50 (Neutrophil collagenase): 1010 nM
IC50 [4]: 1160 nM
IC50 (Collagenase 3): 1230 nM
IC50 [5]: 1070 nM
Ratio IC50 [6]: > 500
Ratio IC50 [7]: > 500
Ratio IC50 [8]: > 500
Ratio IC50 [9]: > 500
Ratio IC50 [10]: > 500
Ratio IC50 [11]: > 500
Ratio IC50 [12]: > 500
Ratio IC50 [13]: > 500
Ratio IC50 [14]: > 500
SMILES: COCc1cc(COc2ccc([C@]3(N)CCN([C@H](CC(C)C)C(=O)NO)C3=O)cc2)c2ccccc2n1
ED50 (Mus musculus): 7.2 mg/kg
